# Assay results reported in ChEMBL document CHEMBL2010718, “Human kallikrein 6 inhibitors with a para-amidobenzylanmine P1 group identified through virtual screening” (Bioorg Med Chem Lett, 2012).
# Tests used:
# [1] = biological target: Kallikrein-1 (Homo sapiens, UniProt P06870); assay: Inhibition of human kallikrein 1
# [2] = biological target: T1, Prostate-specific antigen (Homo sapiens, UniProt P07288); assay: Inhibition of human kallikrein 3
# T1 sequence (P07288 whole entry): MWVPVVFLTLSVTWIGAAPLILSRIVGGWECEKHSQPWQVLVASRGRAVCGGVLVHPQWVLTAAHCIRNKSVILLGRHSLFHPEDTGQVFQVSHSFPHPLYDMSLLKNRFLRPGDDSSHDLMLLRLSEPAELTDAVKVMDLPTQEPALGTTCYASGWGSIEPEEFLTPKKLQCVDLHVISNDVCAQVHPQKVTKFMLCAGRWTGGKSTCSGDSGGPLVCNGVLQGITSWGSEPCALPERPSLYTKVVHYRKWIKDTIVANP
# [3] = biological target: Plasma kallikrein (Homo sapiens, UniProt P03952); assay: Inhibition of plasma kallikrein
# Sequence of Plasma kallikrein (P03952 20-390 limits assumed): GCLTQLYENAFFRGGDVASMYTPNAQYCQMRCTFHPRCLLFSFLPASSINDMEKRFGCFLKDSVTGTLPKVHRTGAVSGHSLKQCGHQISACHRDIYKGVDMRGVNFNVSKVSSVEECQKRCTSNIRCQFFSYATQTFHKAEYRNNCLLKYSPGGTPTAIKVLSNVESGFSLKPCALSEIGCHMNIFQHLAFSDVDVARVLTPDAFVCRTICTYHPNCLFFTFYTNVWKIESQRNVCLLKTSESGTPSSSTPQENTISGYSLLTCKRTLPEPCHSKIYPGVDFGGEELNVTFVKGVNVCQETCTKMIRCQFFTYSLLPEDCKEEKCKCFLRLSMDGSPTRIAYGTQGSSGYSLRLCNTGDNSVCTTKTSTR
# Sequence of Plasma kallikrein (P03952 391-638 limits assumed): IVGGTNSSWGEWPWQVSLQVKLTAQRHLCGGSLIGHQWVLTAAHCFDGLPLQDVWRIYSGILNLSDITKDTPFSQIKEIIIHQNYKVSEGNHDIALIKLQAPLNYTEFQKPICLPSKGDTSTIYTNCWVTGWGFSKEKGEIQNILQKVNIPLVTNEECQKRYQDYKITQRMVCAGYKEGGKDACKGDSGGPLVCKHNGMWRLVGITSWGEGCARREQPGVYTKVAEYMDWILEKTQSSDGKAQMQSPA
# Sequence of Kallikrein-1 (P06870 whole entry): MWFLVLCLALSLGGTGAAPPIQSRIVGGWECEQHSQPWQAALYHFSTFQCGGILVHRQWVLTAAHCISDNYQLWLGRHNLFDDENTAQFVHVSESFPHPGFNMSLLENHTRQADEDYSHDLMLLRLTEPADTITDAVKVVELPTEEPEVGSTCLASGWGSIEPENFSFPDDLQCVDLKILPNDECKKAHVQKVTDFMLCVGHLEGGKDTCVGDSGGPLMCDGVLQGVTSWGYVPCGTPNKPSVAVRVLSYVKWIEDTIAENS
SMILES,Ki [1] [nM],other results
N=C(N)c1cc(Br)c(OCCCCCOc2c(Br)cc(C(=N)N)cc2Br)c(Br)c1,810,–
O=C(OCc1ccccc1)c1cccc(OC(=O)N2C(=O)[C@@H](Cc3ccc(O)cc3)[C@H]2C(=O)OCc2ccccc2)c1,–,IC50 [2]: 226 nM
N=C(N)c1ccc(OCc2ccc(COc3ccc(C(=N)N)cc3I)cc2)c(I)c1,31,–
NC[C@H]1CC[C@H](C(=O)NC(Cc2ccc(Oc3ncccn3)cc2)C(=O)Nc2cccc(C(=O)O)c2)CC1 (some centres undefined),–,IC50 [3]: 710 nM
